pKi: −log10 of the molar value.
What was measured:
Carbonic anhydrase 9 [1] = target: T1, Carbonic anhydrase 9 (Homo sapiens, UniProt Q16790); experiment: Inhibition of human recombinant carbonic anhydrase 9-mediated CO2 hydration after 6 hrs by stopped-flow assay
Carbonic anhydrase 2 = Carbonic anhydrase 2 (Homo sapiens, UniProt P00918); experiment: Inhibition of human recombinant carbonic anhydrase 2-mediated CO2 hydration after 6 hrs by stopped-flow assay
Carbonic anhydrase 1 = Carbonic anhydrase 1 (Homo sapiens, UniProt P00915); experiment: Inhibition of human recombinant carbonic anhydrase 1-mediated CO2 hydration after 6 hrs by stopped-flow assay
Carbonic anhydrase 9 [2] = target: T1, Carbonic anhydrase 9; experiment: Ratio of acetazolamide Ki to compound Ki for human recombinant carbonic anhydrase 9

Sequence of Carbonic anhydrase 1 (P00915 whole entry): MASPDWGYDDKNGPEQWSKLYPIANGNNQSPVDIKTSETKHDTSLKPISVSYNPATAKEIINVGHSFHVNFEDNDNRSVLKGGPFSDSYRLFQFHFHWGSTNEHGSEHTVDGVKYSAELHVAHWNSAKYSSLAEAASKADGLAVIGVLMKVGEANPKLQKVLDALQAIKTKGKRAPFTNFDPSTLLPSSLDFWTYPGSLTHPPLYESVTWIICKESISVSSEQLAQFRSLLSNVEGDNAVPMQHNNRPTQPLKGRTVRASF

| pKi (Carbonic anhydrase 9 [1]) | pKi (Carbonic anhydrase 2) | pKi (Carbonic anhydrase 1) | Ratio Ki (Carbonic anhydrase 9 [2]) | Compound |
| --- | --- | --- | --- | --- |
| 6.99 | < 5.00 | < 5.00 | – | O=S1(=O)C=Cc2cc(-n3nncc3-c3ccc(OC(F)(F)F)cc3)ccc2O1 |
| 6.87 | < 5.00 | < 5.00 | – | O=S1(=O)C=Cc2cc(-n3cc(-c4ccc(C(F)(F)F)cc4)nn3)ccc2O1 |
| 8.04 | < 5.00 | < 5.00 | – | O=S1(=O)C=Cc2cc(-n3nncc3-c3ccc(Cl)cc3)ccc2O1 |
| 8.10 | < 5.00 | < 5.00 | – | Nc1ccccc1-c1cn(-c2ccc3c(c2)C=CS(=O)(=O)O3)nn1 |
| – | < 5.00 | < 5.00 | – | O=S1(=O)C=Cc2cc(-n3nncc3-c3ccc(F)cc3)ccc2O1 |
| 7.98 | < 5.00 | < 5.00 | – | CC(C)(C)c1cn(-c2ccc3c(c2)C=CS(=O)(=O)O3)nn1 |
| – | < 5.00 | < 5.00 | – | O=S1(=O)C=Cc2cc(-n3cc(-c4cccc(F)c4)nn3)ccc2O1 |
| 8.08 | < 5.00 | < 5.00 | – | COc1ccc(-c2cnnn2-c2ccc3c(c2)C=CS(=O)(=O)O3)cc1 |
| – | < 5.00 | < 5.00 | 3 | O=S1(=O)C=Cc2cc(-n3cc(-c4ccc(Cl)cc4)nn3)ccc2O1 |
| – | < 5.00 | < 5.00 | – | O=S1(=O)C=Cc2cc(-n3cc(-c4ccc(F)cc4)nn3)ccc2O1 |
| – | < 5.00 | < 5.00 | – | O=S1(=O)C=Cc2cc(-n3nncc3-c3cccc(C(F)(F)F)c3)ccc2O1 |
| 6.06 | < 5.00 | < 5.00 | – | Nc1cccc(-c2cn(-c3ccc4c(c3)C=CS(=O)(=O)O4)nn2)c1 |
| 8.04 | < 5.00 | < 5.00 | – | COc1cccc(-c2cnnn2-c2ccc3c(c2)C=CS(=O)(=O)O3)c1 |
| 8.02 | < 5.00 | < 5.00 | – | Nc1ccccc1-c1cnnn1-c1ccc2c(c1)C=CS(=O)(=O)O2 |
| – | < 5.00 | < 5.00 | – | O=S1(=O)C=Cc2cc(-n3cc(C4CC4)nn3)ccc2O1 |
| 7.17 | < 5.00 | < 5.00 | – | O=S1(=O)C=Cc2cc(-n3nncc3-c3ccccc3)ccc2O1 |
| 8.13 | < 5.00 | < 5.00 | – | O=S1(=O)C=Cc2cc(-n3nncc3-c3cccc(F)c3)ccc2O1 |

| Compound | pKi (Carbonic anhydrase 9 [1]) | pKi (Carbonic anhydrase 2) | pKi (Carbonic anhydrase 1) | Ratio Ki (Carbonic anhydrase 9 [2]) |
| --- | --- | --- | --- | --- |
| O=S1(=O)C=Cc2cc(-n3nncc3-c3ccc(C(F)(F)F)cc3)ccc2O1 | 8.14 | < 5.00 | < 5.00 | – |
| CC(C)(O)c1cn(-c2ccc3c(c2)C=CS(=O)(=O)O3)nn1 | 7.20 | < 5.00 | < 5.00 | – |
| O=S1(=O)C=Cc2cc(-n3nncc3-c3cccc(Cl)c3)ccc2O1 | 8.06 | < 5.00 | < 5.00 | – |
| O=S1(=O)C=Cc2cc(-n3cc(-c4cccc(Cl)c4)nn3)ccc2O1 | 7.03 | < 5.00 | < 5.00 | – |

— ChEMBL document CHEMBL3124764, “6-Triazolyl-substituted sulfocoumarins are potent, selective inhibitors of the tumor-associated carbonic anhydrases IX and XII” (Bioorg Med Chem Lett, 2014)
